Experimental data from ChEMBL document CHEMBL5233262, “Anti-inflammatory activity of naturally occuring diarylheptanoids - A review” (Bioorg Med Chem, 2021).
pIC50: −log10 of the molar value. In brackets after ≈: the same amount, converted by molar mass.

Columns and labels:
Mus musculus = experiment: Antiinflammatory activity in ICR mouse model of TPA-induced ear edema assessed as inhibition of ear inflammation at 1 mg,TOP for 30 mins followed by TPA addition and measured after 6 hrs; assay type: functional; conditions: time 390 min, 6.5 h
RAW264.7 [1] = experiment: Cytotoxicity against mouse RAW264.7 cells assessed as reduction in cell viability at 30 uM by MTT assay; assay type: toxicity, cell-based; conditions: raw264.7, 30 µM
RAW264.7 [2] = experiment: Antiinflammatory activity in mouse RAW264.7 cells assessed as inhibition of LPS-induced NO production preincubated for 1 hrs followed by LPS stimulation and measured after 24 hrs by Griess reagent based analysis; assay type: functional, cell-based
[3] = Antioxidant activity assessed as DPPH radical scavenging activity incubated for 30 mins by spectrophotometric analysis; assay type: functional
RAW264.7 [4] = experiment: Antiinflammatory activity in mouse RAW264.7 cells assessed as inhibition of LPS-induced NO production at 30 uM preincubated for 0.5 hrs followed by LPS stimulation and measured after 24 hrs by Griess reagent based analysis; assay type: functional; conditions: time 24.5 hrs
[5] = Antioxidant activity assessed as nitroblue tetrazolium superoxide radical scavenging activity incubated for 10 mins by spectrophotometric analysis; assay type: functional
RAW264.7 [6] = experiment: Antiinflammatory activity in mouse RAW264.7 cells assessed as inhibition of IFN-gamma and LPS-induced NO production incubated for 24 hrs by Griess assay; assay type: functional, cell-based; conditions: RAW264.7, 24 h
RAW264.7 [7] = experiment: Antiinflammatory activity in mouse RAW264.7 cells assessed as inhibition of LPS-induced TNFalpha production preincubated for 1 hr followed by LPS stimulation and measured after 18 hrs by immunoassay; assay type: functional, cell-based
MCF-10A = experiment: Antiinflammatory activity in human MCF-10A cells assessed as inhibition of TPA-induced COX2 production at 12.5 to 100 uM incubated for 4 hrs by Western blot analysis; assay type: functional; conditions: dose 12.5-100 µM
RAW264.7 [8] = experiment: Antiinflammatory activity in mouse RAW264.7 cells assessed as inhibition of LPS-induced NO production preincubated for 0.5 hrs followed by LPS stimulation and measured after 24 hrs by Griess reagent based analysis; assay type: functional, cell-based
RAW264.7 [9] = experiment: Antiinflammatory activity in mouse RAW264.7 cells assessed as inhibition of LPS-induced NO production incubated for 20 hrs by Griess method; assay type: functional, cell-based; conditions: RAW264.7, 20 h
RAW264.7 [10] = experiment: Antiinflammatory activity against mouse RAW264.7 cells assessed as inhibition of IFN-gamma and LPS-induced COX2 production preincubated for 2 hrs followed by IFN-gamma and LPS stimulation and measured after 16 hrs by spectrophotometric analysis; assay type: functional, cell-based
RAW264.7 [11] = experiment: Antiinflammatory activity in mouse RAW264.7 cells assessed as inhibition of LPS-induced NF-kappaB activation incubated for 24 hrs by SEAP microplate reader analysis; assay type: functional, cell-based; conditions: RAW264.7, 24 h
RAW264.7 [12] = experiment: Antiinflammatory activity in mouse RAW264.7 cells assessed as inhibition of LPS-induced NO production incubated for 24 hrs by Griess reagent based analysis; assay type: functional, cell-based; conditions: RAW264.7, 24 h
RAW264.7 [13] = experiment: Antiinflammatory activity in mouse RAW264.7 cells assessed as inhibition of IFN-gamma and LPS-induced NO production incubated for 20 hrs by Griess assay; assay type: functional, cell-based; conditions: RAW264.7, 20 h

| pIC50 (RAW264.7 [2]) | pIC50 [3] | pIC50 [5] | IC50 (RAW264.7 [6]) | pIC50 (RAW264.7 [7]) | pIC50 (RAW264.7 [8]) | pIC50 (RAW264.7 [9]) | IC50 (RAW264.7 [10]) | pIC50 (RAW264.7 [11]) | pIC50 (RAW264.7 [12]) | pIC50 (RAW264.7 [13]) | SMILES | ID50 (Mus musculus) | Activity (RAW264.7 [1]) | inhibition at 30 µM (RAW264.7 [4]) | inhibition (INH) (MCF-10A) |
| --- | --- | --- | --- | --- | --- | --- | --- | --- | --- | --- | --- | --- | --- | --- | --- |
| 4.56 | 4.35 | – | – | – | – | – | – | – | – | – | Oc1ccc(CCCC[C@@H](O)CCc2ccc(O)cc2)cc1 | 0.66 mg | 52% | 29% | – |
| 4.67 | 4.59 | 4.72 | 44.3 µg/mL (≈ 128 µM) | 4.63 | 4.52 | 4.75 | 25.7 µg/mL (≈ 74.2 µM) | 5.00 | 4.71 | 5.42 | O=C(CCc1ccc(O)c(O)c1)C[C@@H](O)CCc1ccc(O)c(O)c1 [HIRSUTANONOL] | – | – | – | 22% |
